# Reference: patent US20240368221A1, “IMPATIENS BALSAMINA-DERIVED ANTI-BACTERIAL PEPTIDE AND ANTI-BACTERIAL COMPOSITION CONTAINING SAME” (V&CO CO., LTD., priority 2021, published 2024)
# Where a SMILES comes first, the peptide text is derived from it.
# Experiments:
# [1] = tested on: Escherichia coli KCCM 41290; format: cell-based; details: Escherichia coli
# Protocol: (§1) To examine the antimicrobial and antifungal activity of the six types of peptide derivatives prepared in Example 1, antimicrobial and antifungal activity was analyzed using three types of bacterial strains and two types of fungal strains.
# (§2) Specifically, to analyze antimicrobial and antifungal activity, a minimal inhibitory concentration (MIC) was measured. The three types of bacterial strains included Escherichia coli KCCM 41290, Staphylococcus aureus KCTC 1621, and Cutibacterium acnes KCTC 3314, and the two types of fungal strains included Candida albicans KCTC 17712, and Aspergillus niger KCTC 6317. The culture of Escherichia coli and Staphylococcus aureus was performed in Luria-Bertani (LB) medium (BD Difco), and the culture of Cutibacterium acnes was performed in reinforced clostridial medium (RCM, BD Difco). The culture of Candida albicans and Aspergillus niger was performed in potato dextrose (PD) medium (BD Difco). The pre-cultured microorganisms or spores were diluted in a medium to 5×10^3 CFU/mL, and each of the six types of peptide derivatives prepared in Example 1 was added at a predetermined concentration. Afterward, a bacterial strain was cultured at 37° C., a fungal strain was cultured at 25° C. for 18 to 24 hours, and optical densities (OD600) were measured using a microplate reader. Fluorescence values (Ex560 and Em600), instead of optical densities, were measured after adding a resazurin reagent to the Aspergillus niger medium to have a concentration of 100 μM. As a control, Ib-AMP4 was used, and the analysis results were expressed as the average of three repeated experiments.
# [2] = tested on: Aspergillus niger KCTC 6317; format: cell-based; details: Aspergillus niger, PD medium, 25° C., 18 to 24 hours, resazurin fluorescence
# Protocol: as §1, §2
# [3] = tested on: Staphylococcus aureus KCTC 1621; format: cell-based; details: Staphylococcus aureus
# Protocol: as §1, §2
# [4] = tested on: Candida albicans KCTC 17712; format: cell-based; details: Candida albicans, PD medium, 25° C., 18 to 24 hours, OD600
# Protocol: as §1, §2
# [5] = tested on: Cutibacterium acnes KCTC 3314; format: cell-based; details: KCTC 3314
# Protocol: as §1, §2
# [6] = tested on: L929 cells (murine fibroblast cell line); test: Cytotoxicity, WST-1 cell viability; format: cell-based; details: L929 cells
# Protocol: (§3) Specifically, cytotoxicity was evaluated using a skin cell line, L929 cells (murine fibroblast cell line). In addition, as comparative groups, Ib-AMP4 and the bee venom-derived AMP, melittin, known to be highly cytotoxic, were used. The L929 cells were cultured in RPMI 1640 medium (Gibco), which was supplemented with 10% FBS (Sigma), antibiotic-antimycotic cocktail, penicillin G (100 IU/mL), streptomycin (100 μg/mL), and amphotericin B (250 ng/ml; Gibco), at 37° C. in 5% CO2. The cells were seeded in a 96-well plate at 1×10^4 cell/well, incubated for 18 hours, treated with each peptide at 1.25 to 160 µg/mL, and then incubated for 24 hours. 10 μL of WST-1 reagent was added to 100 μL of the medium and allowed to react at 37° C. for 30 minutes, and then absorbance (A450) was measured at 450 nm using a microplate reader. Instead of the peptides, 0.1% Triton X-100 and PBS were used as positive and negative controls, respectively, and cell viability was calculated based on the following equation: % Cell viability=[(A450 in peptide solution−A450 in PBS)/(A450 in 0.1% Triton X−100-A450 in PBS)]×100. The analysis results were expressed as mean±S.D of three repeated experiments.
# [7] = Cytotoxicity, WST-1 cell viability; format: cell-based, murine; details: mouse, L929 cells (murine fibroblast cell line), L929 cells
# Protocol: as §3
# [8] = tested on: sheep red blood cells (sRBCs); test: Hemolytic activity; format: cell-based; details: for Hemolytic Activity (%): red cells of sheep
# Protocol: Specifically, hemolytic activity was analyzed using sheep red blood cells (sRBCs). In addition, as comparative groups, Ib-AMP4 and melittin were used. Defibrinated sheep blood (MB cells) was centrifuged (4,000×g, 10 min, 4° C.), washed with PBS three times, and suspended in PBS, thereby preparing an sRBC solution (10% sRBC). 5% sRBC and each peptide were mixed to have a final concentration of 1.25 to 160 μg/mL, allowed to react at room temperature for 30 minutes, and centrifuged to collect a supernatant. The absorbance (A414) of hemoglobin eluted from the red blood cells in the collected supernatant was measured at 414 nm. 0.1% Triton X−100 was used as a positive control, PBS was used as a negative control, and hemolytic activity (% Hemolysis) was calculated based on the following equation: % Hemolysis=[(A414 in peptide solution−A414 in PBS)/(A414 in 0.1% Triton X−100−A414 in PBS)]×100.
# [9] = LB medium, 37° C., 18 to 24 hours, OD600
structure (smiles),measurement,setting,value
N=C(N)NCCC[C@H](NC(=O)CNC(=O)[C@H](Cc1c[nH]c2ccccc12)NC(=O)[C@@H](N)CCC(=O)O)C(=O)N[C@@H](CCCNC(=N)N)C(=O)N[C@@H](CS)C(=O)N[C@@H](CS)C(=O)NCC(=O)N[C@@H](Cc1c[nH]c2ccccc12)C(=O)NCC(=O)N1CCC[C@H]1C(=O)NCC(=O)N[C@@H](CCCNC(=N)N)C(=O)N[C@@H](CCCNC(=N)N)C(=O)N[C@@H](Cc1ccc(O)cc1)C(=O)N[C@@H](CS)C(=O)N[C@@H](CCCNC(=N)N)C(=O)N[C@@H](CCCNC(=N)N)C(=O)N[C@@H](Cc1c[nH]c2ccccc12)C(=O)N[C@@H](CS)C(N)=O [Ib-AMP4] (H-EWGRRCCGWGPGRRYCRRWC-NH2; N-terminus assumed),antimicrobial activity (in words),[1],insignificant antimicrobial activity
same,MIC,[1]; [9],> 100 µg/mL
same,MIC,[2],80 µg/mL
same,antimicrobial activity (in words),[3],insignificant antimicrobial activity
same,MIC,[3]; [9],> 100 µg/mL
same,MIC,[4],60 µg/mL
same,MIC,[5],>100 µg/mL
same,cytotoxic activity (in words),[6],insignificant cytotoxic and hemolytic activity
same,"viability at 24 h, 1.25 µg/mL","[7]; peptide 1.25 μg/mL, 24 hours, read-out: Relative cell viability (%)",95%
same,"viability at 24 h, 2.5 µg/mL","[7]; peptide 2.5 μg/mL, 24 hours, read-out: Relative cell viability (%)",94.4%
same,"viability at 24 h, 5 µg/mL","[7]; peptide 5.0 μg/mL, 24 hours, read-out: Relative cell viability (%)",95.1%
same,"viability at 24 h, 10 µg/mL","[7]; peptide 10 μg/mL, 24 hours, read-out: Relative cell viability (%)",95.7%
same,"viability at 24 h, 20 µg/mL","[7]; peptide 20 μg/mL, 24 hours, read-out: Relative cell viability (%)",97.3%
same,"viability at 24 h, 40 µg/mL","[7]; peptide 40 μg/mL, 24 hours, read-out: Relative cell viability (%)",90.4%
same,"viability at 24 h, 80 µg/mL","[7]; peptide 80 μg/mL, 24 hours, read-out: Relative cell viability (%)",92.2%
same,"viability at 24 h, 160 µg/mL","[7]; peptide 160 μg/mL, 24 hours, read-out: Relative cell viability (%)",89.2%
same,"viability at 24 h, 160 g/mL","[7]; peptide 160 g/mL as printed, read-out: cell viability",≥ 90%
same,Hemolytic Activity (%),[8]; 1.25 μg/mL,4.09%
same,Hemolytic Activity (%),[8]; 2.5 μg/mL,4.47%
same,Hemolytic Activity (%),[8]; 5 μg/mL,7.42%
same,Hemolytic Activity (%),[8]; 10 μg/mL,8.42%
same,Hemolytic Activity (%),[8]; 20 μg/mL,10.15%
same,Hemolytic Activity (%),[8]; 40 μg/mL,15.79%
same,Hemolytic Activity (%),[8]; 80 μg/mL,16.61%
same,hemolytic activity (in words),[8]; sheep red blood cells,insignificant cytotoxic and hemolytic activity
